{
  "source": "paper PMC5916808",
  "about": "(Journal of medicinal chemistry, 2017)",
  "key": {"[1]": {"test_system": "AMPA or kainate receptors", "details": "cited from earlier work"}, "[2]": {"details": "ref Jensen, Egebjerg, Bundgaard, unpublished data; cited from earlier work"}, "[3]": {"details": "cited from earlier work"}, "[4]": {"biological_target": "T1, GluN1/GluN2D NMDA receptors (Rattus norvegicus, UniProt Q62645)", "T1 sequence (Q62645 28-1323, other chains not shown)": "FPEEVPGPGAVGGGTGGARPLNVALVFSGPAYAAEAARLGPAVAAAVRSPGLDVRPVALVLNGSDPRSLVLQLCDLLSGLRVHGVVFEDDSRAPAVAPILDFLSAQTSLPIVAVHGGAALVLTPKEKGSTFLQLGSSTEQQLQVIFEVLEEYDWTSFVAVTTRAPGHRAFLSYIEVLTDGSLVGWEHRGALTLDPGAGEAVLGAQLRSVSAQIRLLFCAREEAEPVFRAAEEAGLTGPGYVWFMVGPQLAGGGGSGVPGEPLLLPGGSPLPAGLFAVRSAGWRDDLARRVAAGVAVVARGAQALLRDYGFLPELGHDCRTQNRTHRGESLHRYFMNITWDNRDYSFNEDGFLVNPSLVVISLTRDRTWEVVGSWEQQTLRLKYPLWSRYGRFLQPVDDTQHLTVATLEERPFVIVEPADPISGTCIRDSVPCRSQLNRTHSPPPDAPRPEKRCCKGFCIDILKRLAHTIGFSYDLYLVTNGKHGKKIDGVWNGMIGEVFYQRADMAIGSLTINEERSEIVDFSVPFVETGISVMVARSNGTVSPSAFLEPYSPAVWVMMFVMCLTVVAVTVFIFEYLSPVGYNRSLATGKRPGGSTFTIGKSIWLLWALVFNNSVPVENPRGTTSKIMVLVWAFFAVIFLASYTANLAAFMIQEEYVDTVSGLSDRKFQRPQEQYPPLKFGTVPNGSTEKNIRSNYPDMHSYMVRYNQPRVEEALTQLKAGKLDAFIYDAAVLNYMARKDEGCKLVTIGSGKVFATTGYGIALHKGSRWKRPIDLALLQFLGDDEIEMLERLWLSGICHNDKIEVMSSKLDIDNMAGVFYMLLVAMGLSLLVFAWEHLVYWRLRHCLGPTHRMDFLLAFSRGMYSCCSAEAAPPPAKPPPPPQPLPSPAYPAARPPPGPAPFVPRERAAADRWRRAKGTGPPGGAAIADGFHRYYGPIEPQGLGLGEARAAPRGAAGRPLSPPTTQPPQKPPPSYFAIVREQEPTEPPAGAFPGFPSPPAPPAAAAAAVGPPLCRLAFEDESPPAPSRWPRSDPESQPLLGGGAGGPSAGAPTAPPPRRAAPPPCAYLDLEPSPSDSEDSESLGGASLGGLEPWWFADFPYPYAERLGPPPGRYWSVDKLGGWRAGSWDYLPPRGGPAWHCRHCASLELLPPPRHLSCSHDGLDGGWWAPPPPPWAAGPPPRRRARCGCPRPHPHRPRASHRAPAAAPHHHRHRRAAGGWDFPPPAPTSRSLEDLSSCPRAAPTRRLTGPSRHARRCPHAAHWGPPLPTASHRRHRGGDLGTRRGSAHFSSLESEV", "format": "cell-based"}, "[5]": {"assay": "Pharmacokinetics and brain penetration after IP dosing, LC/MS/MS", "format": "in vivo, C57Bl/6 mice"}, "[6]": {"biological_target": "GluN1/GluN2B NMDA receptors (Rattus norvegicus, UniProt Q00960)", "sequence (Q00960 27-1482, other chains not shown)": "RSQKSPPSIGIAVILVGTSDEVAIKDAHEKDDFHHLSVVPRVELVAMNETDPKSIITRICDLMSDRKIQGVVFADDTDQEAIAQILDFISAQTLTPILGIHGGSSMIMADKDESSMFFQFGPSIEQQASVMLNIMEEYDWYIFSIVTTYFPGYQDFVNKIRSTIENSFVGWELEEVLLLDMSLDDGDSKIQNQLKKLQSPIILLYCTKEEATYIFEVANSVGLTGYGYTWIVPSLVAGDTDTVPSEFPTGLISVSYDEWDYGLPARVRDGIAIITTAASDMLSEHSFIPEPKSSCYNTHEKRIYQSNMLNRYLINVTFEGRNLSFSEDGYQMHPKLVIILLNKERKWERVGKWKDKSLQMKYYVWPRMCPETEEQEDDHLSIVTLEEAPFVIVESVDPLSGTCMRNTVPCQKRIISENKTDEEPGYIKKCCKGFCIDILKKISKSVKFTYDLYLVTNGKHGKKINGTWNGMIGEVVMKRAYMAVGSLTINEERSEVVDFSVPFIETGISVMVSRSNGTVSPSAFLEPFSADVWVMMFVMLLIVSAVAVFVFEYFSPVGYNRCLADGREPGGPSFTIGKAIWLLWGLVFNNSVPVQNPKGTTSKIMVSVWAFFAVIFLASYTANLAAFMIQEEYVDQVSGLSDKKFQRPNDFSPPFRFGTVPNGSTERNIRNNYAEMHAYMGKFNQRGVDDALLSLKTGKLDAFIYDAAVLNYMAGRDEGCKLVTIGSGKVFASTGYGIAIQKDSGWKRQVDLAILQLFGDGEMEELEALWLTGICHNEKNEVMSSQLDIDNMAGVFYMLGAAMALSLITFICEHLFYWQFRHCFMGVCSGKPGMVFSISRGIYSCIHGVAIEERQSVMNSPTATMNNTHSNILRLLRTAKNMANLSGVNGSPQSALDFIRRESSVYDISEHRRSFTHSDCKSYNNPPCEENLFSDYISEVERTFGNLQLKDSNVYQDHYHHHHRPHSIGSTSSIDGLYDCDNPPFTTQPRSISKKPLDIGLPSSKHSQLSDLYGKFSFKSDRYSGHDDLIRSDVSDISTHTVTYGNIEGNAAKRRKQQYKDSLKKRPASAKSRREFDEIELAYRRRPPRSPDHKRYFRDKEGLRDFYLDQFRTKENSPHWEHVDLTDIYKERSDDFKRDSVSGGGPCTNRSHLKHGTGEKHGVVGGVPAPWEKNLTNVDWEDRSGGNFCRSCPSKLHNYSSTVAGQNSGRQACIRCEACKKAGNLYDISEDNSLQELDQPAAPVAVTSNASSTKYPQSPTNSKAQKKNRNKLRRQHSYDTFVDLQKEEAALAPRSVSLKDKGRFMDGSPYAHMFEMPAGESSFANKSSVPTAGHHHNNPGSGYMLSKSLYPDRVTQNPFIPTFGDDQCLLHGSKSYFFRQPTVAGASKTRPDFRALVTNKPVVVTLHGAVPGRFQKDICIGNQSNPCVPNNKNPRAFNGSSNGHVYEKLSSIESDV", "format": "cell-based", "details": "for fold increase in potency at GluN2B, thioamide compared to amide: 138 vs 2, 142 vs 97"}, "[7]": {"biological_target": "T2, GluN1/GluN2C NMDA receptors (Rattus norvegicus, UniProt Q00961)", "T2 sequence (Q00961 20-1237, other chains not shown)": "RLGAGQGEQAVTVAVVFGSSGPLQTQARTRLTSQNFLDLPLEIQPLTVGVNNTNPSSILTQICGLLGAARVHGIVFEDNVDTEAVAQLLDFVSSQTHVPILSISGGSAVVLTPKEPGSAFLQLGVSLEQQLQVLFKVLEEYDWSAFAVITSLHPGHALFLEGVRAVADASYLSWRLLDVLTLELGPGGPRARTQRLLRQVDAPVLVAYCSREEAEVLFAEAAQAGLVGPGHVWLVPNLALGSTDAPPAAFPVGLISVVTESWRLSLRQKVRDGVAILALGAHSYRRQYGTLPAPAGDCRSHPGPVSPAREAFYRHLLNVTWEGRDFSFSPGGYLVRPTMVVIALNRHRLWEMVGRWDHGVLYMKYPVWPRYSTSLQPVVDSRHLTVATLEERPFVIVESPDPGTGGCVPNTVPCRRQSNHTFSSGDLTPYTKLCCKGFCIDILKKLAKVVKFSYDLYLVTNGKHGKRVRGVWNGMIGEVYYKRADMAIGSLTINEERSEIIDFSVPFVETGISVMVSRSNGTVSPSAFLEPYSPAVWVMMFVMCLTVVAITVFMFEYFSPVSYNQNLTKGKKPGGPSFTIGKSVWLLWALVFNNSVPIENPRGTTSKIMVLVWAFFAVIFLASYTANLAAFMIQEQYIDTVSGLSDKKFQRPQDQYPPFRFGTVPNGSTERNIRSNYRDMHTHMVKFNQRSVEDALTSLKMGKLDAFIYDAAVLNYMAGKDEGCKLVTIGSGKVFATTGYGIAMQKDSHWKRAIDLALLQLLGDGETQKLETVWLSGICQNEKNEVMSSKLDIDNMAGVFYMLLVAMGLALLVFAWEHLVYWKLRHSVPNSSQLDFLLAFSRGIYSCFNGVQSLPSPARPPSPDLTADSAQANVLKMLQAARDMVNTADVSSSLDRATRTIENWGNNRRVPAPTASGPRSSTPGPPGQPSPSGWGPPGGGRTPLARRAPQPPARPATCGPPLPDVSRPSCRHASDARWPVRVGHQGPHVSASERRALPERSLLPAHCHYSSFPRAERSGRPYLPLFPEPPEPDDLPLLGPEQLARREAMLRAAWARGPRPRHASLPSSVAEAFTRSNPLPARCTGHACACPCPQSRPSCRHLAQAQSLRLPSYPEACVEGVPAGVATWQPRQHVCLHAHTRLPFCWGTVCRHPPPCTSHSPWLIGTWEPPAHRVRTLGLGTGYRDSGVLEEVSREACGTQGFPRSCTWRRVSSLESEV", "format": "cell-based"}, "GluK2": {"biological_target": "GluK2 (Rattus norvegicus, UniProt P42260)", "sequence (P42260 32-908)": "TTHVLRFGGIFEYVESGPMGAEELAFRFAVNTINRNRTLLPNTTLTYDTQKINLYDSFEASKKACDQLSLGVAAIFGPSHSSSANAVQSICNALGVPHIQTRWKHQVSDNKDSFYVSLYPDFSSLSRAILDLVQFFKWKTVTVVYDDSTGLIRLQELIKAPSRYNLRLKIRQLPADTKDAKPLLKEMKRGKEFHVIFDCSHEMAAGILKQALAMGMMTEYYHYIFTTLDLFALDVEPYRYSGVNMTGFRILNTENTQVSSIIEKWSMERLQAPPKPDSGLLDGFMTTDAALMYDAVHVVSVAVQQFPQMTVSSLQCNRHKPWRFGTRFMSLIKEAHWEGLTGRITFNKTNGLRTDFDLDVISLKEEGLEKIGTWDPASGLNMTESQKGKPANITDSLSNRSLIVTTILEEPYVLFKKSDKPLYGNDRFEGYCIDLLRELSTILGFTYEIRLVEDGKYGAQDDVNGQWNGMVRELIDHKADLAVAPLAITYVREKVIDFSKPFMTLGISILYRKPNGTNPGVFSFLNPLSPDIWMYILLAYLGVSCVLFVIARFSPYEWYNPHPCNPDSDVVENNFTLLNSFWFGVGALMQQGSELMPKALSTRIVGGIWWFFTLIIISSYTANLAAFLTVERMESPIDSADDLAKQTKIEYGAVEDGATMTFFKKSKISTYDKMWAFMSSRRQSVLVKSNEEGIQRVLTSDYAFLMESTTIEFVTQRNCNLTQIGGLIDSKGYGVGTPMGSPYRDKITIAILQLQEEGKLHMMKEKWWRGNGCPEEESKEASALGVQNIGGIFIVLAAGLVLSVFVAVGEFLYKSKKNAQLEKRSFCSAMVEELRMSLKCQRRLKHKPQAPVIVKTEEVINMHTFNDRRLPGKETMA", "assay": "Two-electrode voltage clamp, GluK2 homomeric receptors in Xenopus oocytes", "format": "cell-based", "details": "30 μM compound co-applied with 100 μM glutamate and 30 μM glycine, n=9"}, "[8]": {"biological_target": "T1, GluN1/GluN2D NMDA receptors", "details": "30 μM; previously published data; cited from earlier work"}, "[9]": {"biological_target": "T2, GluN1/GluN2C NMDA receptors", "details": "30 μM; previously published data; cited from earlier work"}, "[10]": {"test_system": "GluN1/GluN2A, GluN1/GluN2B, GluN1/GluN2C, and GluN1/GluN2D NMDA receptors", "assay": "Two-electrode voltage clamp, activity profile across GluN2 subunits", "format": "cell-based, rat", "details": "potentiation of response to maximal glutamate and glycine"}, "[11]": {"assay": "Solubility of test compound in oocyte recording solution", "format": "physicochemical", "details": "aqueous buffer"}, "[12]": {"biological_target": "GluN1/GluN2D NMDA receptors (Rattus norvegicus, UniProt P35439+Q62645)", "sequence (Q62645 28-1323, other chains not shown)": "as the sequence (Q62645 28-1323, other chains not shown) above", "format": "cell-based"}, "GluN1/GluN2B receptors": {"test_system": "GluN1/GluN2B receptors", "details": "noncompetitive inhibitor; cited from earlier work"}, "[13]": {"details": "30 μM co-applied with either 30 μM glutamate or 10 μM glycine"}, "[14]": {"details": "percentage of the initial glutamate (100 μM) and glycine (30 μM) current"}},
  "note": "Several values for one entry are separate records, joined by “and”; a condition that tells them apart may be missing. Equal entries are not always repeated.",
  "data": [
    {"smiles": "COc1ccc(OCC2c3cc(OC)c(OC)cc3CCN2C(=O)c2cccc(Cl)c2)cc1", "note": "(stereo not shown) [CIQ]", "values": [
      {"measurement": "effect on AMPA or kainate receptors", "setting": "[1]", "result": "no effect on AMPA or kainate receptors"},
      {"measurement": "protein binding", "setting": "[2]", "result": "high protein binding"},
      {"measurement": "brain penetration", "setting": "[3]", "result": "brain penetrant"}
    ]},
    {"smiles": "COc1ccc(OCC2c3ccc(OC(C)C)cc3CCN2C(=O)c2cccc(Cl)c2)cc1", "note": "(stereo not shown) [Compound 2, (3-Chlorophenyl)(6-isopropoxy-1-((4-methoxyphenoxy)methyl)-3,4-dihydroisoquinolin-2(1H)-yl)methanone]", "values": [
      {"measurement": "agonist activity at GluN1/GluN2D", "setting": "[4]; [13]", "result": "no agonist activity"},
      {"measurement": "brain concentration", "setting": "[5]; 10 mg/kg IP, at 15 and 30 min", "result": 303, "unit": "ng/mL"},
      {"measurement": "peak plasma concentration", "setting": "[5]; 10 mg/kg IP, at 2 hours, n=3 mice", "result": "789 ng/mL and 1.7 μM"},
      {"measurement": "behavioral observations post-dosing", "setting": "[5]; 10 mg/kg i.p.", "result": "No behavioral abnormalities were observed"},
      {"measurement": "concentration at 4 h", "setting": "[5]; C57Bl/6, mouse, brain, intraperitoneal, 10 mg/kg", "result": 169, "unit": "ng/mL"},
      {"measurement": "Tmax", "setting": "[5]; C57Bl/6, mouse, plasma, ip, 10 mg/kg", "result": 2, "unit": "h"},
      {"measurement": "agonist activity at GluN1/GluN2B", "setting": "[6]; [13]", "result": "no agonist activity"},
      {"measurement": "agonist activity at GluN1/GluN2C", "setting": "[7]; [13]", "result": "no agonist activity"},
      {"measurement": "response as % of the control response to glutamate alone, GluK2", "setting": "GluK2", "result": "96+9%"}
    ]},
    {"smiles": "COc1ccc(OCC2c3ccc(OC)cc3CCN2C(=O)c2cccc(Cl)c2)cc1", "note": "(stereo not shown) [Compound 86]", "values": [
      {"measurement": "I30μM / Icontrol (mean ± SEM, %) GluN2D", "setting": "[8]", "result": "215 ± 19", "unit": "%"},
      {"measurement": "I30μM / Icontrol (mean ± SEM, %) GluN2C", "setting": "[9]", "result": "213 ± 13", "unit": "%"}
    ]},
    {"smiles": "CCOc1ccc(OCC2c3ccc(OC(C)C)cc3CCN2C(=O)c2ccccc2)cc1", "note": "(stereo not shown) [Compound 95, (1-((4-Ethoxyphenoxy)methyl)-6-isopropoxy-3,4-dihydroisoquinolin-2(1H)-yl)(phenyl)methanone]", "values": [
      {"measurement": "activity / subunit selectivity in words", "setting": "[10]", "result": "inactive at all subunits"}
    ]},
    {"smiles": "CCOc1ccc(OCC2c3ccc(OC(C)C)cc3CCN2C(=O)c2cccc(F)c2)cc1", "note": "(stereo not shown) [Compound 97, (1-((4-Ethoxyphenoxy)methyl)-6-isopropoxy-3,4-dihydroisoquinolin-2(1H)-yl)(3-fluorophenyl)methanone]", "values": [
      {"measurement": "activity / subunit selectivity in words", "setting": "[10]", "result": "active at only GluN2B"}
    ]},
    {"smiles": "CCOc1ccc(OCC2c3ccc(OC(C)C)cc3CCN2C(=O)c2cccc(-c3ccccc3)c2)cc1", "note": "(stereo not shown) [Compound 99, Biphenyl-3-yl(1-((4-ethoxyphenoxy)methyl)-6-isopropoxy-3,4-dihydroisoquinolin-2(1H)-yl)methanone]", "values": [
      {"measurement": "activity / subunit selectivity in words", "setting": "[10]", "result": "inactive"},
      {"measurement": "solubility", "setting": "[11]", "result": "< 30", "unit": "µM"}
    ]},
    {"smiles": "CCOc1ccc(OCC2c3ccc(OC(C)C)cc3CCN2C(=O)c2cccc(C)c2)cc1", "note": "(stereo not shown) [Compound 100, (1-((4-Ethoxyphenoxy)methyl)-6-isopropoxy-3,4-dihydroisoquinolin-2(1H)-yl)(m-tolyl)methanone]", "values": [
      {"measurement": "activity / subunit selectivity in words", "setting": "[10]", "result": "inactive"}
    ]},
    {"smiles": "CCOc1ccc(OCC2c3ccc(OC(C)C)cc3CCN2C(=O)c2cccc(OC)c2)cc1", "note": "(stereo not shown) [Compound 101, (1-((4-Ethoxyphenoxy)methyl)-6-isopropoxy-3,4-dihydroisoquinolin-2(1H)-yl)(3-methoxyphenyl)methanone]", "values": [
      {"measurement": "activity / subunit selectivity in words", "setting": "[10]", "result": "inactive"}
    ]},
    {"smiles": "CCOc1ccc(OCC2c3ccc(OC(C)C)cc3CCN2C(=O)c2ccccc2F)cc1", "note": "(stereo not shown) [Compound 102, (1-((4-Ethoxyphenoxy)methyl)-6-isopropoxy-3,4-dihydroisoquinolin-2(1H)-yl)(2-fluorophenyl)methanone]", "values": [
      {"measurement": "activity / subunit selectivity in words", "setting": "[10]", "result": "complete loss of activity"}
    ]},
    {"smiles": "CCOc1ccc(OCC2c3ccc(OC(C)C)cc3CCN2C(=O)c2ccccc2Cl)cc1", "note": "(stereo not shown) [Compound 103, (2-Chlorophenyl)(1-((4-ethoxyphenoxy)methyl)-6-isopropoxy-3,4-dihydroisoquinolin-2(1H)-yl)methanone]", "values": [
      {"measurement": "activity / subunit selectivity in words", "setting": "[10]", "result": "complete loss of activity"}
    ]},
    {"smiles": "CCOc1ccc(OCC2c3ccc(OC(C)C)cc3CCN2C(=O)c2ccc(F)cc2)cc1", "note": "(stereo not shown) [Compound 104, (1-((4-Ethoxyphenoxy)methyl)-6-isopropoxy-3,4-dihydroisoquinolin-2(1H)-yl)(4-fluorophenyl)methanone]", "values": [
      {"measurement": "activity / subunit selectivity in words", "setting": "[10]", "result": "complete loss of activity"}
    ]},
    {"smiles": "CCOc1ccc(OCC2c3ccc(OC(C)C)cc3CCN2C(=O)c2ccc(Cl)cc2)cc1", "note": "(stereo not shown) [Compound 105, (4-Chlorophenyl)(1-((4-ethoxyphenoxy)methyl)-6-isopropoxy-3,4-dihydroisoquinolin-2(1H)-yl)methanone]", "values": [
      {"measurement": "activity / subunit selectivity in words", "setting": "[10]", "result": "complete loss of activity"}
    ]},
    {"smiles": "CCOc1ccc(OCC2c3ccc(OC(C)C)cc3CCN2C(=O)c2ccc(F)c(F)c2)cc1", "note": "(stereo not shown) [Compound 106, (3,4-Difluorophenyl)(1-((4-ethoxyphenoxy)methyl)-6-isopropoxy-3,4-dihydroisoquinolin-2(1H)-yl)methanone]", "values": [
      {"measurement": "activity / subunit selectivity in words", "setting": "[10]", "result": "active"}
    ]},
    {"smiles": "CCOc1ccc(OCC2c3ccc(OC(C)C)cc3CCN2C(=O)c2ccc(Cl)c(Cl)c2)cc1", "note": "(stereo not shown) [Compound 107, (3,4-Dichlorophenyl)(1-((4-ethoxyphenoxy)methyl)-6-isopropoxy-3,4-dihydroisoquinolin-2(1H)-yl)methanone]", "values": [
      {"measurement": "activity / subunit selectivity in words", "setting": "[10]", "result": "active"},
      {"measurement": "solubility", "setting": "[11]", "result": "< 10", "unit": "µM"}
    ]},
    {"smiles": "CCOc1ccc(OCC2c3ccc(OC(C)C)cc3CCN2C(=O)c2ccc(F)c(Cl)c2)cc1", "note": "(stereo not shown) [Compound 108, (3-Chloro-4-fluorophenyl)(1-((4-ethoxyphenoxy)methyl)-6-isopropoxy-3,4-dihydroisoquinolin-2(1H)-yl)methanone]", "values": [
      {"measurement": "activity / subunit selectivity in words", "setting": "[10]", "result": "active"}
    ]},
    {"smiles": "CCOc1ccc(OCC2c3ccc(OC(C)C)cc3CCN2C(=O)c2cc(Cl)cc(Cl)c2)cc1", "note": "(stereo not shown) [Compound 109]", "values": [
      {"measurement": "solubility", "setting": "[11]", "result": "< 30", "unit": "µM"}
    ]},
    {"smiles": "COc1ccccc1OCC1c2ccc(OC(C)C)cc2CCN1C(=O)c1cccc(Cl)c1", "note": "(stereo not shown) [Compound 111, (3-Chlorophenyl)(6-isopropoxy-1-((2-methoxyphenoxy)methyl)-3,4-dihydroisoquinolin-2(1H)-yl)methanone]", "values": [
      {"measurement": "activity / subunit selectivity in words", "setting": "[10]", "result": "all activity was lost"}
    ]},
    {"smiles": "CC(C)Oc1ccc(OCC2c3ccc(OC(C)C)cc3CCN2C(=O)c2cccc(Cl)c2)cc1", "note": "(stereo not shown) [Compound 113, (3-Chlorophenyl)(6-isopropoxy-1-((4-isopropoxyphenoxy)methyl)-3,4-dihydroisoquinolin-2(1H)-yl)methanone]", "values": [
      {"measurement": "activity / subunit selectivity in words", "setting": "[10]", "result": "moderately GluN2B-selective"}
    ]},
    {"smiles": "COc1ccc(OCC2c3ccc(OC(C)C)cc3CCN2C(=O)c2cccc(F)c2)cc1", "note": "(stereo not shown) [Compound 114, (3-Fluorophenyl)(6-isopropoxy-1-((4-methoxyphenoxy)methyl)-3,4-dihydroisoquinolin-2(1H)-yl)methanone]", "values": [
      {"measurement": "fitted maximum response GluN2D", "setting": "[4]; [14]", "result": 493, "unit": "%"},
      {"measurement": "EC50", "setting": "[12]", "result": 11, "unit": "µM"},
      {"measurement": "fitted maximum response GluN2B", "setting": "[6]; [14]", "result": 391, "unit": "%"}
    ]},
    {"smiles": "COc1ccc(OCC2c3ccc(OC(C)C)cc3CCN2C(=S)c2cccc(Cl)c2)cc1", "note": "(stereo not shown) [Compound 138, (3-Chlorophenyl)(6-isopropoxy-1-((4-methoxyphenoxy)methyl)-3,4-dihydroisoquinolin-2(1H)-yl)methanethione]", "values": [
      {"measurement": "fold increase in potency at GluN2D, thioamide compared to amide", "setting": "[4]; 138 vs 2", "result": "~10", "unit": "fold"},
      {"measurement": "fold increase in potency at GluN2B, thioamide compared to amide", "setting": "[6]", "result": "~10", "unit": "fold"},
      {"measurement": "fold increase in potency at GluN2C, thioamide compared to amide", "setting": "[7]; 138 vs 2", "result": "~4", "unit": "fold"}
    ]},
    {"smiles": "CCOc1ccc(OCC2c3ccc(OC(C)C)cc3CCN2C(=S)c2cccc(F)c2)cc1", "note": "(stereo not shown) [Compound 142, (1-((4-Ethoxyphenoxy)methyl)-6-isopropoxy-3,4-dihydroisoquinolin-2(1H)-yl)(3-fluorophenyl)methanethione]", "values": [
      {"measurement": "fold increase in potency at GluN2B, thioamide compared to amide", "setting": "[6]", "result": 13, "unit": "fold"}
    ]},
    {"smiles": "CCOc1ccc(OC[C@H]2c3ccc(OC(C)C)cc3CCN2C(=S)c2cccc(F)c2)cc1", "note": "[R-(+)-142, (R)-(1-((4-Ethoxyphenoxy)methyl)-6-isopropoxy-3,4-dihydroisoquinolin-2(1H)-yl)(3-fluorophenyl)methanethione]", "values": [
      {"measurement": "activity / subunit selectivity in words", "setting": "[10]", "result": "no detectable potentiation of any NMDA receptor subunit combinations"}
    ]},
    {"smiles": "CC(C(O)c1ccc(O)cc1)N1CCC(Cc2ccccc2)CC1", "note": "(stereo not shown) [ifenprodil]", "values": [
      {"measurement": "fold more potent at GluN2B-containing receptors compared to GluN2A, GluN2C, or GluN2D", "setting": "GluN1/GluN2B receptors", "result": "> 100", "unit": "fold"}
    ]}
  ]
}
